{
  "source": "patent US8986677B2",
  "about": "“Therapeutic compositions and methods” (Pop Test Cortisol LLC, priority 2012, dated 2015)",
  "key": {"[1]": {"tested_on": "organotypic hippocampal slice cultures, CA1 region pyramidal cells", "assay": "Ethanol withdrawal toxicity (propidium iodide uptake) in organotypic hippocampal slice cultures", "assay_type": "cell-based", "from_the_text": "(FIG. 2A). […] Co-exposure to the selective glucocorticoid receptor antagonist ORG 34517 with ethanol and corticosterone prevented this withdrawal toxicity. Representative PI images above, (FIG. 2B). Results shown in graph form. *=P<0.05 vs control; **=P<0.05 vs EtOH WD+CORT.\nCorticosterone's exacerbation of ethanol withdrawal toxicity is blocked by […] coadministration. […] (FIG. 2). […] Co-exposure to the selective glucocorticoid receptor antagonist ORG 34517 with ethanol and corticosterone prevented this withdrawal toxicity. Representative PI images above, graphed below. *=P<0.05 vs control; **=P<0.05 vs EtOH WD+CORT."}, "glucocorticoid receptor": {"molecular_target": "T1, glucocorticoid receptor (Homo sapiens, UniProt P04150)", "T1 sequence (P04150 1-777)": "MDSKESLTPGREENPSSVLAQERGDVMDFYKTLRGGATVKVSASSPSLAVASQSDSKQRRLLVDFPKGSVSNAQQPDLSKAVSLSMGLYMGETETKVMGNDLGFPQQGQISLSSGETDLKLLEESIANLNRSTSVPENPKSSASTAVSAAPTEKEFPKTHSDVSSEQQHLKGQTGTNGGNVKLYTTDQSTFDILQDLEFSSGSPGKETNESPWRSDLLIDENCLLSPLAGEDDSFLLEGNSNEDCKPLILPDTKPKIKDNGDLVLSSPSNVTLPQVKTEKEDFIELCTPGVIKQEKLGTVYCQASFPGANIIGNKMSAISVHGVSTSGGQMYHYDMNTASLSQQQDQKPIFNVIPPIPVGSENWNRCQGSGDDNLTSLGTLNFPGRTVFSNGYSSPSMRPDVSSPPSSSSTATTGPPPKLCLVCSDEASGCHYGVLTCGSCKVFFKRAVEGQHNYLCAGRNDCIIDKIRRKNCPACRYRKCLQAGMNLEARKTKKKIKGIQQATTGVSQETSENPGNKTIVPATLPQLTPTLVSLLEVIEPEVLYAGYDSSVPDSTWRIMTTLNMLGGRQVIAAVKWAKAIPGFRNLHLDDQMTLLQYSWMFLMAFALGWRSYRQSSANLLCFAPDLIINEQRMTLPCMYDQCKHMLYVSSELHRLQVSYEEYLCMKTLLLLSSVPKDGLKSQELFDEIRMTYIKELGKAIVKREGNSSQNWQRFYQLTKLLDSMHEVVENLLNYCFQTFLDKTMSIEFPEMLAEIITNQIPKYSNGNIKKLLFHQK", "details": "cited from earlier work"}, "estrogen receptor": {"molecular_target": "T2, estrogen receptor (Homo sapiens, UniProt P03372)", "T2 sequence (P03372 1-595)": "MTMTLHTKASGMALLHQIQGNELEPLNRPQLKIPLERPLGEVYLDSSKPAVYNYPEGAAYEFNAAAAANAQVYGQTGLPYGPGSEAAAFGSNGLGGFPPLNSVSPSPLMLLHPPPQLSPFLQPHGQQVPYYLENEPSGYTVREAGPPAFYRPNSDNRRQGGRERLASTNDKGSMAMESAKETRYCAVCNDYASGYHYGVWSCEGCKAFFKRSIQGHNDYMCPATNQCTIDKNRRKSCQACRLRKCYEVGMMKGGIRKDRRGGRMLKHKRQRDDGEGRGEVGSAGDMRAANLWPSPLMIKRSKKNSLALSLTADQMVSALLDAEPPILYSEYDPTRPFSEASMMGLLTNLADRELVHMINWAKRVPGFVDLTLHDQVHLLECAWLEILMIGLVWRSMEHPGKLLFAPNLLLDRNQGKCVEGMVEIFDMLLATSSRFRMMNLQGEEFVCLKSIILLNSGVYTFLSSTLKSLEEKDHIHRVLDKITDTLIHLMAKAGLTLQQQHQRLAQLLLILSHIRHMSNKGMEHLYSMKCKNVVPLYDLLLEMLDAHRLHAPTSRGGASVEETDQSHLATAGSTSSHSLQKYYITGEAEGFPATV", "details": "cited from earlier work"}, "progesterone receptor": {"molecular_target": "T3, progesterone receptor (Homo sapiens, UniProt P06401)", "T3 sequence (P06401 1-933)": "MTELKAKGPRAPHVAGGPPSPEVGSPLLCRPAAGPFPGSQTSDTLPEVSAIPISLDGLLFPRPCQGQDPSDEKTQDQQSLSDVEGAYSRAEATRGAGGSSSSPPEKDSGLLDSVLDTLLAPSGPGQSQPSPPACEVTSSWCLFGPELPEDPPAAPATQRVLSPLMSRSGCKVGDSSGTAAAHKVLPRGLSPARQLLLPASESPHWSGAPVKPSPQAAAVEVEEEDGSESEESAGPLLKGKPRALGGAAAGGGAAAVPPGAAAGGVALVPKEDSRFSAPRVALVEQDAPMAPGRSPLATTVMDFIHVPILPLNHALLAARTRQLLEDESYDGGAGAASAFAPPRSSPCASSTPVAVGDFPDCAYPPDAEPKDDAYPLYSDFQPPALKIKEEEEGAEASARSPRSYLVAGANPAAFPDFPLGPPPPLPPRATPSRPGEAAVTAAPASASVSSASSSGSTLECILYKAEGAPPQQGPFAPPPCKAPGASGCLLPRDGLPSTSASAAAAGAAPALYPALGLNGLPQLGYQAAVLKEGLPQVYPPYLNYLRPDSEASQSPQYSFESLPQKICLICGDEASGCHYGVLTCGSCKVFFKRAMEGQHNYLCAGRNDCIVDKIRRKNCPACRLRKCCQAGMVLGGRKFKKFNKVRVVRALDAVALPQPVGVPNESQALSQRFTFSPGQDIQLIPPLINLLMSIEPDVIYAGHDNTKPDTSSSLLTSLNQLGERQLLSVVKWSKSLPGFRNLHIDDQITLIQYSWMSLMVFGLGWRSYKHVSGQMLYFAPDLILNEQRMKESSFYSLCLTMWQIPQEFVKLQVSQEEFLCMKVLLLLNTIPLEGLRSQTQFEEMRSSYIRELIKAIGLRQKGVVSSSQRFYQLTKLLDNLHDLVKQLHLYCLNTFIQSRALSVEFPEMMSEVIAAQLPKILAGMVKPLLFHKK", "details": "cited from earlier work"}, "[2]": {"details": "all phase I and phase II clinical trials performed with the compound; cited from earlier work"}},
  "data": [
    {"smiles": "CC#C[C@]1(O)CC[C@H]2[C@@H]3CCC4=CC(=O)CCC4=C3[C@@H](c3ccc4c(c3)OCO4)C[C@@]21C", "note": "[ORG 34517, (11β,17β)-11-(1,3-benzodioxol-5-yl)-17-hydroxy-17-(1-propynyl)estra-4,9-dien-3-one]", "values": [
      {"measurement": "ethanol withdrawal toxicity (propidium iodide uptake, CA1 region)", "setting": "[1]; co-exposure with ethanol (50 mM) and corticosterone (1 μM), 1 day of ethanol withdrawal, P<0.05 vs EtOH WD+CORT", "result": "prevented"},
      {"measurement": "behavioral symptoms of the ethanol withdrawal syndrome", "setting": "adult male rats; 20 mg/kg s.c. once daily immediately prior to binge ethanol (i.g.) at 0800 hrs on 4 consecutive days, adult male rats, P<0.001 vs EtOH WD", "result": "significantly reduced"},
      {"measurement": "reductions in whole body tremor and wet shakes", "setting": "adult male rats; 20 mg/kg s.c. once daily prior to binge ethanol, 4 days, adult male rats", "result": "most evident"},
      {"measurement": "behavior of ethanol-naïve rats", "setting": "adult male rats; rat, in vivo", "result": "did not alter behavior in any manner"},
      {"measurement": "glucocorticoid receptor binding affinity", "setting": "glucocorticoid receptor", "result": "high"},
      {"measurement": "cross-binding / affinity for estrogen receptor", "setting": "estrogen receptor", "result": "without significant cross-binding"},
      {"measurement": "cross-binding / affinity for progesterone receptor", "setting": "progesterone receptor", "result": "without significant cross-binding"},
      {"measurement": "significant toxicities and side effects", "setting": "[2]", "result": "none were identified"}
    ]},
    {"smiles": "C[C@]12C[C@H](O)[C@H]3[C@@H](CCC4=CC(=O)CC[C@@]43C)[C@@H]1CC[C@@H]2C(=O)CO", "note": "[corticosterone]", "values": [
      {"measurement": "toxicity (propidium iodide uptake) in CA1 region pyramidal cells", "setting": "[1]; corticosterone 1 μM with ethanol 50 mM, then 1 day of ethanol withdrawal in the presence of corticosterone", "result": "significant toxicity"},
      {"measurement": "propidium iodide uptake, exposure alone", "setting": "[1]; corticosterone alone", "result": "did not alter"}
    ]},
    {"smiles": "CCO", "note": "[ethanol]", "values": [
      {"measurement": "peak blood ethanol levels", "setting": "adult male rats; male, rat, in vivo, 4 days", "result": "180.27-103.5"}
    ]}
  ]
}
